Laboratory results from PubChem BioAssay AID1963444 (Molecular Pharmacology Branch, DTP, NCI, 2024).

System: HSSY-II complex spheroid growth, percent test/control
Assay: Anticancer human tumor HSSY-II cell line growth inhibition [Asc];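 further: spheroids exposed to drug for 7 days before reading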
Settings: for IC50: curve of first compound; for viability, T/C: stronger effect = lower value
Procedure, shortened: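 Complex spheroids combining tumor cells with HUVEC endothelial cells and human MSCs, at 37 degrees C, 5% CO2; agents tested alone or combined, half-log dilutions from at or near clinical Cmax, or 10 microM if Cmax unknown.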

With `C#Cc1c(F)ccc2cc(O)cc(-c3ncc4c(N5CC6CCC(C5)N6)nc(OCC56CCCN5CC(F)C6)nc4c3F)c12` (stereo not given) + Cc1c(S(C)(=O)=O)c(-c2cc(F)cc(N3CCN(c4ccc(NS(=O)(=O)c5ccc(NC(CCN6CCC(C(=O)OCCCP(=O)(O)O)CC6)CSc6ccccc6)c(S(=O)(=O)C(F)(F)F)c5)cc4)CC3)c2)c(-c2ccc(Cl)cc2)n1C(C)C the IC50 (second compound 0.1 µM) was 8.63 µM, the IC50 (second compound 0.316 µM) was 6.03 µM and the IC50 (second compound 1 µM) was 5.88 µM. The IC50 (second compound 3.16 µM) was 5.43 µM, the IC50 (second compound 10 µM) was 5.95 µM and the viability, T/C (second compound 0.1 µM, first compound 0.0316 µM) was 103%. It also gave a viability, T/C (second compound 0.1 µM, first compound 0.1 µM) of 99.5%, a viability, T/C (second compound 0.1 µM, first compound 0.316 µM) of 99.6% and a viability, T/C (second compound 0.1 µM, first compound 1 µM) of 102%. For the same compound, the viability, T/C (second compound 0.1 µM, first compound 3.16 µM) was 87.8%, the viability, T/C (second compound 0.1 µM, first compound 10 µM) was 44% and the viability, T/C (second compound 0.316 µM, first compound 0.0316 µM) was 108%. The viability, T/C (second compound 0.316 µM, first compound 0.1 µM) was 117%, the viability, T/C (second compound 0.316 µM, first compound 0.316 µM) was 110% and the viability, T/C (second compound 0.316 µM, first compound 1 µM) was 105%. It also gave a viability, T/C (second compound 0.316 µM, first compound 3.16 µM) of 82%, a viability, T/C (second compound 0.316 µM, first compound 10 µM) of 25% and a viability, T/C (second compound 1 µM, first compound 0.0316 µM) of 102%. The viability, T/C (second compound 1 µM, first compound 0.1 µM) was 105%, the viability, T/C (second compound 1 µM, first compound 0.316 µM) was 109% and the viability, T/C (second compound 1 µM, first compound 1 µM) was 105%. It also gave a viability, T/C (second compound 1 µM, first compound 3.16 µM) of 96.8%, a viability, T/C (second compound 1 µM, first compound 10 µM) of 9.87% and a viability, T/C (second compound 3.16 µM, first compound 0.0316 µM) of 108%. It also gave a viability, T/C (second compound 3.16 µM, first compound 0.1 µM) of 115%, a viability, T/C (second compound 3.16 µM, first compound 0.316 µM) of 94.3% and a viability, T/C (second compound 3.16 µM, first compound 1 µM) of 101%. For the same compound, the viability, T/C (second compound 3.16 µM, first compound 3.16 µM) was 83.7%, the viability, T/C (second compound 3.16 µM, first compound 10 µM) was 13.2% and the viability, T/C (second compound 10 µM, first compound 0.0316 µM) was 105%. It also gave a viability, T/C (second compound 10 µM, first compound 0.1 µM) of 95.2%, a viability, T/C (second compound 10 µM, first compound 0.316 µM) of 92.6% and a viability, T/C (second compound 10 µM, first compound 1 µM) of 97.8%. It also gave a viability, T/C (second compound 10 µM, first compound 3.16 µM) of 74.9% and a viability, T/C (second compound 10 µM, first compound 10 µM) of 29.4%.

Compound `Cc1nc(N2CCC3(CC2)COC(C)C3N)c(CO)nc1Sc1ccnc(N)c1Cl` (stereo not given) + Cc1c(S(C)(=O)=O)c(-c2cc(F)cc(N3CCN(c4ccc(NS(=O)(=O)c5ccc(NC(CCN6CCC(C(=O)OCCCP(=O)(O)O)CC6)CSc6ccccc6)c(S(=O)(=O)C(F)(F)F)c5)cc4)CC3)c2)c(-c2ccc(Cl)cc2)n1C(C)C has an IC50 (second compound 0.1 µM) of over 3 µM, an IC50 (second compound 0.316 µM) of over 3 µM and an IC50 (second compound 1 µM) of over 3 µM. It also gave an IC50 (second compound 3.16 µM) of over 3 µM, an IC50 (second compound 10 µM) of over 3 µM and a viability, T/C (second compound 0.1 µM, first compound 0.00949 µM) of 79.8%. It also gave a viability, T/C (second compound 0.1 µM, first compound 0.03 µM) of 83.8%, a viability, T/C (second compound 0.1 µM, first compound 0.0949 µM) of 88.9% and a viability, T/C (second compound 0.1 µM, first compound 0.3 µM) of 78.8%. For the same compound, the viability, T/C (second compound 0.1 µM, first compound 0.949 µM) was 84.9%, the viability, T/C (second compound 0.1 µM, first compound 3 µM) was 60.2% and the viability, T/C (second compound 0.316 µM, first compound 0.00949 µM) was 59.4%. The viability, T/C (second compound 0.316 µM, first compound 0.03 µM) was 71.4%, the viability, T/C (second compound 0.316 µM, first compound 0.0949 µM) was 60.7% and the viability, T/C (second compound 0.316 µM, first compound 0.3 µM) was 79.1%. The viability, T/C (second compound 0.316 µM, first compound 0.949 µM) was 65.3%, the viability, T/C (second compound 0.316 µM, first compound 3 µM) was 61.7% and the viability, T/C (second compound 1 µM, first compound 0.00949 µM) was 68.1%. It also gave a viability, T/C (second compound 1 µM, first compound 0.03 µM) of 66.1%, a viability, T/C (second compound 1 µM, first compound 0.0949 µM) of 78.5% and a viability, T/C (second compound 1 µM, first compound 0.3 µM) of 51.7%. The viability, T/C (second compound 1 µM, first compound 0.949 µM) was 67.5%, the viability, T/C (second compound 1 µM, first compound 3 µM) was 59.2% and the viability, T/C (second compound 3.16 µM, first compound 0.00949 µM) was 64.1%. The viability, T/C (second compound 3.16 µM, first compound 0.03 µM) was 53.9%, the viability, T/C (second compound 3.16 µM, first compound 0.0949 µM) was 65% and the viability, T/C (second compound 3.16 µM, first compound 0.3 µM) was 58.1%. For the same compound, the viability, T/C (second compound 3.16 µM, first compound 0.949 µM) was 63.3%, the viability, T/C (second compound 3.16 µM, first compound 3 µM) was 62.2% and the viability, T/C (second compound 10 µM, first compound 0.00949 µM) was 50.7%. It also gave a viability, T/C (second compound 10 µM, first compound 0.03 µM) of 64.1%, a viability, T/C (second compound 10 µM, first compound 0.0949 µM) of 62.7% and a viability, T/C (second compound 10 µM, first compound 0.3 µM) of 48.3%. For the same compound, the viability, T/C (second compound 10 µM, first compound 0.949 µM) was 51.3% and the viability, T/C (second compound 10 µM, first compound 3 µM) was 54.6%.
